From PMC8244166 (Neuron, 2020) come the findings set out here.

Series [1] concerns AITC-evoked nocifensive behavior. As to the kind of experiment: Inhibition of AITC-evoked nocifensive behavior, PK/PD. It is filed as in vivo, rat. The conditions noted are these: 30 mg/kg dosing.
The test system of series [2] is GNE551-evoked nocifensive behavior. As to the kind of experiment: Inhibition of GNE551-evoked nocifensive behavior, PK/PD. It is filed as in vivo, rat.
A short description of series [3]: Rat pharmacokinetics after oral gavage. The class given is in vivo.

`Cn1cnc2ncn(Cc3nc(CCc4ccc(Cl)cc4)no3)c(=O)c21` [AMG0902]: the “block of AITC-induced response” value in series [1] is 86%. For the same compound, in series [2] (30 mg/kg), the “block of GNE551-induced response” value worked out at 38%. In series [2] (increasing oral doses of antagonist), the “latency to GNE551-induced nocifensive behavior” value was “lengthened the latency”. The “Tmax (time point of maximal plasma concentration)” value in series [3] is 1 h.
